Laboratory results from patent publication US12655124B2, “Heterocyclic compounds as modulators of stimulator of interferon genes (STING)” (RYVU THERAPEUTICS S.A., priority 2019, dated 2026).
Structures can show the parent of a compound that is named as a salt.

Molecular target: human STING (Homo sapiens, UniProt Q86WV6)
Assay: Fluorescence Thermal Shift assay (hSTING FTS binding assay);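 also: STING preincubated with compound for 20 min in HEPES NaCl buffer pH 7.5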
Conditions: ΔTm, STING 0.1 mg/mL, SyproOrange, 25 to 99° C.
Experimental: Fluorescence Thermal Shift Assay Compounds of the present invention were tested for binding to human STING in Fluorescence Thermal Shift assay. […] Final STING concentration was 0.1 mg/mL. Thermal unfolding was performed in Real-Time PCR QuantStudio 6 Flex System (Applied Biosystems), from 25 to 99° C., with continuous ramp mode and ramp rate 0.033° C./s. The data were analyzed using Protein Thermal Shift Software (ThermoFisher).

Sequence of human STING (Q86WV6 whole entry H232R): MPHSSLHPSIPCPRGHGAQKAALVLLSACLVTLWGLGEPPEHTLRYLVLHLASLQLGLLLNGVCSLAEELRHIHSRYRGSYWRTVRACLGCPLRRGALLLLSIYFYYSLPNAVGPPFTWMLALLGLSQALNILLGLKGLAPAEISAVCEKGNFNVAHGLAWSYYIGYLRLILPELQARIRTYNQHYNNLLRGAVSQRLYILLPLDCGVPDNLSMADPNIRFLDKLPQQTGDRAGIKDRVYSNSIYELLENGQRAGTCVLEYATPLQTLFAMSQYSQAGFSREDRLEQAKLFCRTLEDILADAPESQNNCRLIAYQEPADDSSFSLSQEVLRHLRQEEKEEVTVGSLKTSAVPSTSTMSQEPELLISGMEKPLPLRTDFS

Compound	hSTING FTS binding assay (ΔT ° C.)
Cc1cc(CN(Cc2cn(C)c3ccccc3c2=O)[C@H]2CCCN(c3cccc(N)c3)C2)ccn1.Cl [Example 1, 3-({[(3S)-1-(3-Aminophenyl)piperidin-3-yl][(2-methylpyridin-4-yl)methyl]amino}methyl)-1-methyl-1,4-dihydroquinolin-4-one Hydrochloride]	+ (ΔTm≤10° C.)
Cc1cc(CN(Cc2cn(C)c3ccccc3c2=O)[C@H]2CCCN(c3ccc(N)nc3)C2)ccn1 [Example 2, 3-({[(3S)-1-(6-Aminopyridin-3-yl)piperidin-3-yl][(2-methylpyridin-4-yl)methyl]amino}methyl)-1-methyl-1,4-dihydroquinolin-4-one]	+++ (ΔTm≥20° C.)
Cc1cc(CN(Cc2cn(C)c3ccccc3c2=O)[C@H]2CCCN(c3ccc(CN)nc3)C2)ccn1.Cl [Example 3, 3-({[(3S)-1-[6-(Aminomethyl)pyridin-3-yl]piperidin-3-yl][(2-methylpyridin-4-yl)methyl]amino}methyl)-1-methyl-1,4-dihydroquinolin-4-one Hydrochloride]	+ (ΔTm≤10° C.)
Cc1ccc(N2CCC[C@H](N(Cc3ccnc(N)c3)Cc3cn(C4CC4)c4cc(F)c(F)cc4c3=O)C2)cn1 [Example 5, 3-({[(2-Aminopyridin-4-yl)methyl][(3S)-1-(6-methylpyridin-3-yl)piperidin-3-yl]amino}methyl)-1-cyclopropyl-6,7-difluoro-1,4-dihydroquinolin-4-one Hydrochloride]	+++ (ΔTm≥20° C.)
Cc1ccc(N2CCC[C@H](N(Cc3ccnc(C)c3)Cc3cn(C)c4cc(N5CCC(N)CC5)ccc4c3=O)C2)cn1.Cl [Example 6, 7-(4-Aminopiperidin-1-yl)-1-methyl-3-({[(3S)-1-(6-methylpyridin-3-yl)piperidin-3-yl][(2-methylpyridin-4-yl)methyl]amino}methyl)-1,4-dihydroquinolin-4-one Hydrochloride]	++ (10<ΔTm<20° C.)
Cc1ccc(N2CCC[C@H](N(Cc3ccnc(C)c3)Cc3cn(C4CC4)c4cc(N)c(F)cc4c3=O)C2)cn1 [Example 7, 7-Amino-1-cyclopropyl-6-fluoro-3-({[(3S)-1-(6-methylpyridin-3-yl)piperidin-3-yl][(2-methylpyridin-4-yl)methyl]amino}methyl)-1,4-dihydroquinolin-4-one]	+++ (ΔTm≥20° C.)
Cc1ccc(N2CCC[C@H](N(Cc3ccnc(C)c3)Cc3cn(C4CC4)c4cc(NCCN)c(F)cc4c3=O)C2)cn1 [Example 8, 7-[(2-Aminoethyl)amino]-1-cyclopropyl-6-fluoro-3-({[(3S)-1-(6-methylpyridin-3-yl)piperidin-3-yl][(2-methylpyridin-4-yl)methyl]amino}methyl)-1,4-dihydroquinolin-4-one]	+++ (ΔTm≥20° C.)
Cc1ccc(N2CCC[C@H](N(Cc3ccnc(C)c3)Cc3cn(C4CC4)c4cc(NCCN(C)C)c(F)cc4c3=O)C2)cn1 [Example 9, 1-Cyclopropyl-7-{[2-(dimethylamino)ethyl]amino}-6-fluoro-3-({[(3S)-1-(6-methylpyridin-3-yl)piperidin-3-yl][(2-methylpyridin-4-yl)methyl]amino}methyl)-1,4-dihydroquinolin-4-one]	+++ (ΔTm≥20° C.)
COCCn1cc(CN(Cc2ccnc(C)c2)[C@H]2CCCN(c3ccc(N)nc3)C2)c(=O)c2ccccc21.Cl [Example 21, 3-({[(3S)-1-(6-aminopyridin-3-yl)piperidin-3-yl][(2-methylpyridin-4-yl)methyl]amino}methyl)-1-(2-methoxyethyl)-1,4-dihydroquinolin-4-one Hydrochloride]	+++ (ΔTm≥20° C.)
Cc1ccc(N2CCC[C@H](N(Cc3ccnc(C)c3)Cc3cn(C)c4cc(N5CC[C@@H](O)C5)ccc4c3=O)C2)cn1 [Example 23, 7-[(3R)-3-hydroxypyrrolidin-1-yl]-1-methyl-3-({[(3S)-1-(6-methylpyridin-3-yl)piperidin-3-yl][(2-methylpyridin-4-yl)methyl]amino}methyl)-1,4-dihydroquinolin-4-one]	++ (10<ΔTm<20° C.)

More lines, now with the values ahead:

hSTING FTS binding assay (ΔT ° C.)	Compound
+++ (ΔTm≥20° C.)	Cc1ccc(N2CCC[C@H](N(Cc3ccnc(C)c3)Cc3cn(C4CC4)c4cc(N5CC[C@@H](N)C(F)(F)C5)c(F)cc4c3=O)C2)cn1.Cl (single isomer, unassigned) [Example 56]
+++ (ΔTm≥20° C.)	Cc1ccc(N2CCC[C@H](N(Cc3ccnc(C)c3)Cc3cn(C4CC4)c4cc(OCCN)c(F)cc4c3=O)C2)cn1 [Example 10, 7-(2-Aminoethoxy)-1-cyclopropyl-6-fluoro-3-({[(3S)-1-(6-methylpyridin-3-yl)piperidin-3-yl][(2-methylpyridin-4-yl)methyl]amino}methyl)-1,4-dihydroquinolin-4-one]
+++ (ΔTm≥20° C.)	CNCCOc1cc2c(cc1F)c(=O)c(CN(Cc1ccnc(C)c1)[C@H]1CCCN(c3ccc(C)nc3)C1)cn2C1CC1.Cl [Example 11, 1-Cyclopropyl-6-fluoro-7-[2-(methylamino)ethoxy]-3-({[(3S)-1-(6-methylpyridin-3-yl)piperidin-3-yl][(2-methylpyridin-4-yl)methyl]amino}methyl)-1,4-dihydroquinolin-4-one Hydrochloride]
+++ (ΔTm≥20° C.)	Cc1ccc(N2CCC[C@H](N(Cc3ccnc(C)c3)Cc3cn(C4CC4)c4cc(N5CC[C@@H](N)C5)c(F)cc4c3=O)C2)cn1.Cl [Example 12, 7-[(3R)-3-Aminopyrrolidin-1-yl]-1-cyclopropyl-6-fluoro-3-({[(3S)-1-(6-methylpyridin-3-yl)piperidin-3-yl][(2-methylpyridin-4-yl)methyl]amino}methyl)-1,4-dihydroquinolin-4-one Hydrochloride]
+++ (ΔTm≥20° C.)	Cc1ccc(N2CCC[C@H](N(Cc3ccnc(C)c3)Cc3cn(C4CC4)c4cc(N5CC[C@H](N)C5)c(F)cc4c3=O)C2)cn1.Cl [Example 13, 7-[(3S)-3-Aminopyrrolidin-1-yl]-1-cyclopropyl-6-fluoro-3-({[(3S)-1-(6-methylpyridin-3-yl)piperidin-3-yl][(2-methylpyridin-4-yl)methyl]amino}methyl)-1,4-dihydroquinolin-4-one Hydrochloride]
+++ (ΔTm≥20° C.)	Cc1ccc(N2CCC[C@H](N(Cc3ccnc(C)c3)Cc3cn(C4CC4)c4cc(N5CC[C@@H](O)C5)c(F)cc4c3=O)C2)cn1.Cl [Example 14, 1-Cyclopropyl-6-fluoro-7-[(3R)-3-hydroxypyrrolidin-1-yl]-3-({[(3S)-1-(6-methylpyridin-3-yl)piperidin-3-yl][(2-methylpyridin-4-yl)methyl]amino}methyl)-1,4-dihydroquinolin-4-one Hydrochloride]
+++ (ΔTm≥20° C.)	Cc1ccc(N2CCC[C@H](N(Cc3ccnc(C)c3)Cc3cn(C4CC4)c4cc(N5CC[C@H](CN)C5)c(F)cc4c3=O)C2)cn1.Cl [Example 15, 7-[(3R)-3-(Aminomethyl)pyrrolidin-1-yl]-1-cyclopropyl-6-fluoro-3-({[(3S)-1-(6-methylpyridin-3-yl)piperidin-3-yl][(2-methylpyridin-4-yl)methyl]amino}methyl)-1,4-dihydroquinolin-4-one Hydrochloride]
+++ (ΔTm≥20° C.)	Cc1ccc(N2CCC[C@H](N(Cc3ccnc(C)c3)Cc3cn(C4CC4)c4cc(N5CCC[C@H](N)C5)c(F)cc4c3=O)C2)cn1 [Example 16, 7-[(3S)-3-Aminopiperidin-1-yl]-1-cyclopropyl-6-fluoro-3-({[(3S)-1-(6-methylpyridin-3-yl)piperidin-3-yl][(2-methylpyridin-4-yl)methyl]amino}methyl)-1,4-dihydroquinolin-4-one]
+++ (ΔTm≥20° C.)	Cc1ccc(N2CCC[C@H](N(Cc3ccnc(C)c3)Cc3cn(C4CC4)c4cc(N5CCC[C@@H](N)C5)c(F)cc4c3=O)C2)cn1 [Example 17, 7-[(3R)-3-Aminopiperidin-1-yl]-1-cyclopropyl-6-fluoro-3-({[(3S)-1-(6-methylpyridin-3-yl)piperidin-3-yl][(2-methylpyridin-4-yl)methyl]amino}methyl)-1,4-dihydroquinolin-4-one]
+++ (ΔTm≥20° C.)	CNC1CCN(c2cc3c(cc2F)c(=O)c(CN(Cc2ccnc(C)c2)[C@H]2CCCN(c4ccc(C)nc4)C2)cn3C2CC2)CC1.Cl [Example 19, 1-cyclopropyl-6-fluoro-7-[4-(methylamino)piperidin-1-yl]-3-({[(3S)-1-(6-methylpyridin-3-yl)piperidin-3-yl][(2-methylpyridin-4-yl)methyl]amino}methyl)-1,4-dihydroquinolin-4-one Hydrochloride]
+++ (ΔTm≥20° C.)	Cc1ccc(N2CCC[C@H](N(Cc3ccnc(C)c3)Cc3cn(C4CC4)c4cc(N5CC[C@@H](CN)C5)c(F)cc4c3=O)C2)cn1.Cl [Example 20, 7-[(3S)-3-(aminomethyl)pyrrolidin-1-yl]-1-cyclopropyl-6-fluoro-3-({[(3S)-1-(6-methylpyridin-3-yl)piperidin-3-yl][(2-methylpyridin-4-yl)methyl]amino}methyl)-1,4-dihydroquinolin-4-one Hydrochloride]
+++ (ΔTm≥20° C.)	Cc1ccc(N2CCC[C@H](N(Cc3ccnc(C)c3)Cc3cn(C4CC4)c4cc(N5CC(N)C6(CC6)C5)c(F)cc4c3=O)C2)cn1.Cl (stereo partly drawn) [Example 22, 7-{7-amino-5-azaspiro[2.4]heptan-5-yl}-1-cyclopropyl-6-fluoro-3-({[(3S)-1-(6-methylpyridin-3-yl)piperidin-3-yl][(2-methylpyridin-4-yl)methyl]amino}methyl)-1,4-dihydroquinolin-4-one Hydrochloride]
